Measured values reported in patent US11576913B2 (priority 2018, dated 2023).
Where two headings read alike, the source gives them in different places.

How the values were obtained:
clinical = assay type: in vivo, human; details: for Fe, Mean (CV %): unchanged in urine; for CLr, Mean / Tmax / half-life / AUC / CL renal / Cmax: human, in vivo; for half-life: read-out: T1/2, Mean (CV %) (converted); for AUC / Cmax: Mean (CV %); for CL renal: CLr, Mean
From the text: This study was designed to evaluate the safety and pharmacokinetic (“PK”) interactions between Compound (1C) and alcohol in healthy subjects. […] The study was designed as a single-site, randomized, single-dose, double-blinded, placebo-controlled crossover study, and 46 subjects completed treatment as part of the study.
The dose of alcohol at 0.7 g/kg was consistent with the NIAAA definition of binge drinking, which can lead to blood alcohol concentration of approximately 0.08 g/dL. In the United States this is generally considered the level at which a person is legally impaired. In addition, such dose level has been studied in previously completed relevant alcohol interaction study in which the safety and tolerability were established in a similar population (Hong Sun et al. “Psychomotor effects, pharmacokinetics and safety of the orexin receptor antagonist suvorexant administered in combination with alcohol in healthy subjects.” Journal of Psychopharmacology 2015, Vol. 29(11) 1159-1169).
Briefly, blinded alcoholic beverage or placebo beverage was consumed over a 20- to 30-minute period. The beverage was divided into 3 parts, with approximately ⅓ administered (consumed to completion by subject at their own pace) every 10 minutes, […], in order to control for drinking rate.
Subjects swallowed Compound (1C) with the alcoholic beverage, with small sips of water as needed if the subject could not drink the alcohol quickly enough to consume the alcohol. […] A mouthwash with water was provided before and at the end of dosing. A mouth check was performed to verify that the Compound (1C) doses administered are swallowed. Vital signs and oxygen saturation, SpO2, (FIG. 26) were collected for evaluation by the investigator.
AUCt Area under the plasma concentration-time curve from hour 0 to the last measurable plasma concentration, calculated by the linear trapezoidal method.
AUCinf Area under the plasma concentration-time curve extrapolated to infinity:
Where Ct is the last measurable plasma concentration and […] is the apparent terminal phase rate constant;
Cmax Maximum observed plasma concentration
Tmax Time to maximum plasma concentration
T1/2 Apparent terminal phase half-life: T1/2=(ln2)/λz

[1] = test system: subjects suffering from the Insomnia Disorder adult insomnia; assay type: in vivo, human; details: for mean change in DSST score net of placebo, compared with suvorexant: about 9 hours after administration, vs 10, 20 and 40 mg suvorexant, FIG. 11
Protocol: Literature data for indications of sleep efficacy and attendant residual effects after suvorexant administration, orally administered as BELSOMRA tablets at a single dose of 10 mg, 20 mg, and 40 mg, was available. Literature data for indications of sleep efficacy after zolpidem administration, orally administered as AMBIEN CR tablets, i.e., an extended-release tablet comprising the tartrate salt, in a single dose of 12.5 mg was also available. […] Additionally, the data shown in FIG. 8 through FIG. 11 are for the treatment effect net of placebo.

[2] = assay type: in vivo, rat; details: within 48 hours of oral dosing
From the text: Specifically, liquid scintillation counting (“LSC”) was used for the determination of total radiolabeled Compound (1C) material, i.e., the original or parent compound and its metabolites. […] Using ^14C as a radiolabel for pharmacokinetic studies is a recognized technique and embedding the radiolabel into the ring structure was done to limit migration or exchange of the radiolabel to non-Compound (1C)-related molecules. The specific radioactivity for the lot of [^14C]-Compound (1C) synthesized was 2.50 MBq/mg (67.6 μCi/mg) [3.49 MBq/mg (94.4 μCi/mg) if the material were to be present as the free base form] with a radiochemical purity of greater than 98.5% as determined by HPLC. The synthesized radiolabeled [^14C]-Compound (1C) was stored away from light at a temperature of −80° C. before use.
Following oral administration of [^14C]-Compound (1C) (in an appropriate vehicle, e.g., a methyl cellulose suspension) to the experimental animals, excreta samples were collected over specified time intervals. Urine samples were collected at fixed intervals post dosing. Fecal samples were homogenized and diluted prior to being solubilized. Aliquots of these samples were counted following the addition of liquid scintillation fluid thereto. Detection limits for radioactivity in the excreta samples were set at twice the background count (from blank samples) as determined by LSC. The [^14C]-Compound (1C) was stable for about 4-5 hours in urine at a temperature of about 25° C. and, when kept refrigerated at 4° C., for up to 15 days (rat urine) and 36 days (dog urine). Recovery of [^14C]-Compound (1C) from rat urine was typically from about 91.6 to about 99.1%.

SMILES: O=C(O)c1nc2ccccc2n([C@H]2C[C@H]3CCC[C@@H](C2)N3C2CC3CCCC(C3)C2)c1=O (stereo partly shown) [Compound (1C)]
- Fe, Mean (CV %) (clinical; 2 mg + EtOH (0.7 g/kg)): 84 (33) %
- Urine Fe, Mean (clinical; 2 mg Alone (N = 48)): 80.7%
- Fe, Mean (CV %) (clinical; 2 mg alone): 81 (12) %
- PK profile of ethanol on co-administration of Compound (1C) (clinical; 2 mg or 6 mg with ethanol vs ethanol with placebo, FIG. 24): not affected
- Urine Fe, Mean (clinical; 2 mg with Alcohol (N = 46)): 83.6%
- Fe, Mean (CV %) (clinical; 6 mg + EtOH (0.7 g/kg)): 80 (20) %
- Urine Fe, Mean (clinical; 6 mg Alone (N = 47)): 80.8%
- Fe, Mean (CV %) (clinical; 6 mg alone): 81 (10) %
- Urine Fe, Mean (clinical; 6 mg with Alcohol (N = 48)): 79.6%
- effect of alcohol on the PK profile of Compound (1C) (clinical; 2 and 6 mg with 0.7 g/kg ethanol): does not alter the PK profile
- CLr, Mean (clinical; 2 mg): 12.7 L/h
- Tmax (clinical; 2 mg): 1.7 h
- half-life (clinical; 2 mg + EtOH (0.7 g/kg)): 234 min
- half-life (clinical; 2 mg, 2 mg alone): 240 min
- AUC (clinical; 2 mg): 130 ng·h/mL
- CL renal (clinical; 2 mg): 210 mL/min
- Cmax (clinical; 2 mg): 28.2 ng/mL
- CLr, Mean (clinical; 6 mg): 12.3 L/h
- Tmax (clinical; 6 mg): 1.9 h
- half-life (clinical; 6 mg + EtOH (0.7 g/kg)): 270 min
- half-life (clinical; 6 mg, 6 mg alone): 270 min
- AUC (clinical; 6 mg): 402 ng·h/mL
- CL renal (clinical; 6 mg): 198 mL/min
- Cmax (clinical; 6 mg): 78.3 ng/mL
- mean improvement in WASO net of placebo, compared with suvorexant ([1]; 0.5 mg Compound (1C) vs 10 mg or 20 mg suvorexant, Night 1, FIG. 9): nearly comparable to
- mean improvement in WASO net of placebo, compared with zolpidem ([1]; 0.5 mg Compound (1C) vs 12.5 mg zolpidem, Night 1, FIG. 9): far greater than
- mean change in DSST score net of placebo, compared with suvorexant ([1]; 0.5 mg): small and comparable
- mean improvement in SE net of placebo, compared with suvorexant ([1]; 1.0 mg Compound (1C) vs 10 mg suvorexant, Night 1, FIG. 8): greater than
- mean improvement in SE net of placebo, compared with zolpidem ([1]; 1.0 mg Compound (1C) vs 12.5 mg zolpidem, Night 1, FIG. 8): greater than
- mean improvement in WASO net of placebo, compared with suvorexant ([1]; 1.0 mg Compound (1C) vs 40 mg suvorexant, Night 1, FIG. 9): nearly comparable to
- mean change in DSST score net of placebo, compared with suvorexant ([1]; 1.0 mg): small and comparable
- mean improvement in LPS net of placebo, compared with suvorexant ([1]; 6.0 mg Compound (1C) vs 10 mg suvorexant, Night 1, FIG. 10): comparable to
- mean improvement in SE net of placebo, compared with suvorexant ([1]; 6.0 mg Compound (1C) vs 40 mg suvorexant, Night 1, FIG. 8): comparable to
- mean improvement in LPS net of placebo, compared with suvorexant or zolpidem ([1]; up to 6.0 mg Compound (1C) vs 20 mg suvorexant or 12.5 mg zolpidem, Night 1, FIG. 10): not as great as
- Average % Elimination, Fecal ([2]; Rat (female)): 27.9%
- Average % Elimination, Fecal + Urinary ([2]; Rat (female)): 94.7%
- Average % Elimination, Urinary ([2]; Rat (female)): 66.8%
- Average % Elimination, Fecal ([2]; Rat (male)): 41.6%
- Average % Elimination, Fecal + Urinary ([2]; Rat (male)): 96.0%
- Average % Elimination, Urinary ([2]; Rat (male)): 54.4%
